Experimental data: patent publication US10793525B2, “13-cis-RAMBA retinamides that degrade MNKs for treating cancer” (UNIVERSITY OF MARYLAND, BALTIMORE, priority 2014, dated 2020)

Columns and labels:
[1] = system: Mnk-1, peIF4E and their downstream targets; test: Molecular analysis of MDA-MB-231 tumors; assay type: in vivo; conditions: MDA-MB-231 tumors from treated mice
Description: To assess their in vivo mode of action, we evaluated the effects of Compounds 20 and 22 on Mnk-1, peIF4E and their downstream targets.

[2] = system: MDA-MB-231 xenograft tumors; test: MDA-MB-231 anti-tumor efficacy study (xenograft); assay type: in vivo
Protocol: (§1) All animal studies were performed according to the guidelines and approval of the Animal Care Committee of the University of Maryland School of Medicine, Baltimore (UMB). Female Athymic Nude mice or male SCID (Charles Rivers Laboratories or UMB facilities) at 4-6 weeks of age were maintained in a pathogen-free environment. MDA-MB-231 (10×10^6) cells were subcutaneously implanted into Athymic Nude mice and CWR22Rv1 (1×10^6) cells into male SCID mice. Mice bearing established tumors (˜100 mm^3) were randomized into treatment groups of 6 and dosed with vehicle (40% β-cyclodexdrin in ddH2O), or compounds 20 and 22 (i.p., formulated in 40% β-cyclodexdrin in ddH2O, once daily, 5 days a week for 28 days).
(§2) The National Cancer Institute (NCI) criteria^23 were used to determine tumor growth efficacy of our compounds. Thus, percent test or treatment/control (% T/C), defined as the ratio of the median tumor volume for the treated group versus control group, was calculated as % T/C=[(median tumor volume of treated group at day 28)/(median tumor volume of control group at day 28)]×100.
Indeed, the two compounds were equipotent (FIG. 9A). […] Representative photos of the tumor-bearing mice in the control and the two treatment groups at termination of experiment (day 28) are presented in FIG. 9B.

[3] = system: CWR22Rv1 xenograft tumors; test: CWR22Rv1 anti-tumor efficacy study (xenograft); assay type: in vivo, mice
Protocol: as §1, §2

[4] = system: MDA-MB-231 human breast cancer cells; test: MTT cell proliferation assay, MDA-MB-231; assay type: cell-based; conditions: MDA-MB-231 cells, SEM < 10%, read-out: GI50s MDA-MB-231
Description: (§3) MCF-7, MDA-MB-231, MDA-MB-468 and SKBR-3 human breast cancer cells and LNCaP, PC-3, and CWR22Rv1 human prostate carcinoma cells (American Type Culture Collection, Manassas, Va., USA) were maintained in RPMI 1640 media (Gibco-Life Technologies, Grand Island, N.Y., USA) supplemented with 10% fetal bovine serum and 1% penicillin/streptomycin. Western blotting was done as mentioned previously,^8, 13b using the following antibodies: AR, Bad, Bax, Bcl-2, eIF4E, Mnk1, Mnk-2, N-cadherin, PARP, peIF4E^ser209 purchased from Cell Signaling Technology, Danvers, Mass., USA. Anti-Mnk2 was purchased from Sigma-Aldrich and normal rabbit IgG, cyclin D1 was from Santa Cruz Biotechnology, CA, USA.
(§4) Cells were plated (2500 cells/well) in 96 well plates and treated with or without specified compounds as described previously.^8a, 12b
(§5) The clinically relevant retinoids, ATRA and 4-HPR and the Mnk inhibitor, cercosporamide were used as comparators in the assays.

PC-3 cells = test: Wound-healing assay, PC-3 cell migration; assay type: cell-based, human; conditions: 5 μM, 24 hours
Protocol: Wound healing assay and matrigel invasion assay were also conducted as described previously using highly metastatic PC-3 cells following treatment with 5 μM of RRs for 24 h.^8a,26
Based on previous studies with closely related compound,^8 the inhibitory effects of Compounds 16, 20 and 22 on cell migration were evaluated, using the human metastatic PC cell line, PC-3 by wound-healing assay. PC-3 cells (5×10^5 cells/well) were seeded on Boyden chamber, grown to confluence and scratches made at experimental tome zero. The cells were treated with indicated compounds (5 μM each) for 24 hours. Representative photomicrographs of initial and final wounds are shown at 100× magnification. […] At 24 hours after cell monolayers were wounded, control cells had completely filled in the scratched area.

[5] = system: fAR, AR-V7, Mnk-1, peIF4E and their downstream targets; test: Molecular analysis of CWR22Rv1 tumors; assay type: in vivo; conditions: CWR22Rv1 tumors from treated mice
Description: To assess their in vivo mode of action, we evaluated the effects of Compound 20 on fAR, AR-V7, Mnk-1, peIF4E and their downstream targets.

[6] = system: LNCaP human prostate carcinoma cells; test: MTT cell proliferation assay, LNCaP; assay type: cell-based; conditions: SEM < 10%, read-out: GI50s LNCaP
Description: as §3, §4, §5
The PC-3 cell line was the least sensitive to all the compounds tested.

[7] = MDA-MB-231 xenograft mice, i.p. 20 mg/kg 5×/week over 28 days
[8] = CWR22Rv1 xenografts, castrated SCID mice, i.p. 20 mg/kg/day, 5 days per week for 28 days

CC1=C(/C=C/C(C)=C/C=C/C(C)=C\C(=O)Nc2cccc(F)c2)C(C)(C)CCC1n1ccnc1 (stereo not drawn) [Compound 20, (2Z,4E,6E,8E)-9-(3-(1H-imidazol-1-yl)-2,6,6-trimethylcyclohex-1-en-1-yl)-N-(3-fluorophenyl)-3,7-dimethylnona-2,4,6,8-tetraenamide]
Mnk1/2, peIF4E, cyclin D1 and Bcl-2 in tumors [1]: depletion | pro-apoptotic proteins Bad and Bax in tumors [1]: up-regulation | body weight [2, 7]: did not lose body weight | signs of toxicity / adverse events [2, 7]: no apparent adverse events | suppression of tumor growth ([2]; MDA-MB-231 xenografts, i.p. 20 mg/kg 5×/week over 28 days): 85.4% | % T/C (treated/control median tumor volume) ([2]; MDA-MB-231 xenografts, i.p. 20 mg/kg 5×/week, day 28): 14.6% | adverse effects ([3]; CWR22Rv1 xenograft mice): no apparent adverse effects | body weights ([3]; CWR22Rv1 xenograft mice, vehicle control versus treatment): comparable | % T/C value [3, 8]: 38.8% | suppression of tumor growth [3, 8]: 61.2% | IC50 [4]: 8.51 µM | migration of PC-3 cells (PC-3 cells): significantly inhibited migration | fAR, AR-V7, Mnk1/2, peIF4E, cyclin D1 and Bcl-2 in tumors [5]: depletion | pro-apoptotic protein Bad in tumors [5]: up-regulation | IC50 [6]: 2.69 µM
